A short description of the experiment: Inhibition of virion associated RT activity relative to untreated, infected control in cord blood mononuclear cells (CBMC) infected with HIV -1 TC354 strain.

The structures appear in SMILES notation.

For the compound `O=C1N(Cc2ccc(CO)cc2)[C@H](Cc2ccccc2)[C@H](O)[C@@H](O)[C@@H](Cc2ccccc2)N1Cc1ccc(CO)cc1` [(4R,5S,6S,7R)-4,7-dibenzyl-5,6-dihydroxy-1,3-bis({[4-(hydroxymethyl)phenyl]methyl})-1,3-diazepan-2-one], half-maximal inhibition (IC50) required 0.11 µM.

Compound `CC[C@@H](C)[C@@H]1NC(=O)[C@@H](NC[C@@H](O)[C@H](Cc2ccccc2)NC(=O)[C@@H](NC(=O)c2ccc3ccccc3n2)C(C)C)Cc2ccc(cc2)OCCCNC1=O` had an IC50 of 0.095 µM.

The values are drawn from BindingDB's records for doi:10.1021/jm000013n (The University of Queensland, 2000).
